The supplement of paper PMC13207355
Where a name gives a salt, the structure may show the parent alone.

Columns and labels:
Conditions in all cases: exposure time: 72 h
[1] = system: E13 (patient-derived glioblastoma stem cells of classical subtype); assay: phenotypic distance (Euclidean, principal components) from DMSO controls (arbitrary units); higher = stronger morphological change
[2] = system: E21 (patient-derived glioblastoma stem cells of mesenchymal subtype); assay: as above
[3] = system: E28 (patient-derived glioblastoma stem cells of classical subtype); assay: as above
[4] = system: E31 (patient-derived glioblastoma stem cells of proneural subtype); assay: as above
[5] = system: E34 (patient-derived glioblastoma stem cells of proneural subtype); assay: as above
[6] = system: FT3469 (normal neural stem cell line); assay: as above
[7] = system: E57 (patient-derived glioblastoma stem cells of mesenchymal subtype); assay: as above
[8] = system: E13; assay: surviving fraction (nuclei count normalised to DMSO); higher = more cells surviving (less toxic)
[9] = system: E21; assay: as above
[10] = system: E28; assay: as above
[11] = system: E31; assay: as above
[12] = system: E34; assay: as above
[13] = system: FT3469; assay: as above
[14] = system: E57; assay: as above
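Wherever phenotypic distance (Euclidean, principal components) from DMSO controls is given: cell Painting imaging in 384-well plates, CellProfiler features reduced to at least 20 principal components, Euclidean distance versus same-plate DMSO vehicle wells (0.1% v/v), median over six images per well.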
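Wherever surviving fraction (nuclei count normalised to DMSO) is given: nuclei counted by high-content imaging of Hoechst-stained cells in laminin-coated 384-well plates, relative to 0.1% DMSO vehicle wells, with staurosporine as cell-death control.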

CC(C)C[C@@H](C(=O)N[C@H](C(=O)OC1CCCC1)c1ccccc1)[C@H](O)C(=O)NO [Tosedostat]
Conditions	phenotypic distance	surviving fraction
[1], 4.1 nM	0.738	–
[1], 12.3 nM	0.631	–
[1], 37 nM	1.06	–
[1], 111.1 nM	1.01	–
[1], 333.3 nM	1.39	–
[1], 1000 nM	1.41	–
[1], 3000 nM	1.3	–
[2], 4.1 nM	0.795	–
[2], 12.3 nM	0.918	–
[2], 37 nM	0.947	–
[2], 111.1 nM	1.11	–
[2], 333.3 nM	1.62	–
[2], 1000 nM	1.49	–
[2], 3000 nM	2.1	–
[3], 4.1 nM	0.786	–
[3], 12.3 nM	1.24	–
[3], 37 nM	1.27	–
[3], 111.1 nM	1.73	–
[3], 333.3 nM	1.68	–
[3], 1000 nM	2.2	–
[3], 3000 nM	2.09	–
[4], 4.1 nM	1.18	–
[4], 12.3 nM	0.639	–
[4], 37 nM	1.52	–
[4], 111.1 nM	0.949	–
[4], 333.3 nM	1.01	–
[4], 1000 nM	1.28	–
[4], 3000 nM	1.86	–
[5], 4.1 nM	0.805	–
[5], 12.3 nM	1.29	–
[5], 37 nM	0.677	–
[5], 111.1 nM	1.91	–
[5], 333.3 nM	1.92	–
[5], 1000 nM	1.4	–
[5], 3000 nM	1.6	–
[6], 4.1 nM	1.7	–
[6], 12.3 nM	1.82	–
[6], 37 nM	1.97	–
[6], 111.1 nM	1.7	–
[6], 333.3 nM	1.92	–
[6], 1000 nM	2.23	–
[6], 3000 nM	2.64	–
[7], 4.1 nM	1.53	–
[7], 12.3 nM	1.55	–
[7], 37 nM	1.95	–
[7], 111.1 nM	2.24	–
[7], 333.3 nM	2.7	–
[7], 1000 nM	2.08	–
[7], 3000 nM	2.7	–
[8], 4.1 nM	–	0.889
[8], 12.3 nM	–	0.853
[8], 37 nM	–	0.863
[8], 111.1 nM	–	1.01
[8], 333.3 nM	–	0.894
[8], 1000 nM	–	0.894
[8], 3000 nM	–	0.934
[9], 4.1 nM	–	0.858
[9], 12.3 nM	–	0.909
[9], 37 nM	–	0.793
[9], 111.1 nM	–	0.78
[9], 333.3 nM	–	0.772
[9], 1000 nM	–	0.715
[9], 3000 nM	–	0.507
[10], 4.1 nM	–	0.904
[10], 12.3 nM	–	0.755
[10], 37 nM	–	0.781
[10], 111.1 nM	–	0.846
[10], 333.3 nM	–	0.657
[10], 1000 nM	–	0.692
[10], 3000 nM	–	0.583
[11], 4.1 nM	–	0.788
[11], 12.3 nM	–	0.935
[11], 37 nM	–	0.7
[11], 111.1 nM	–	0.861
[11], 333.3 nM	–	0.836
[11], 1000 nM	–	0.796
[11], 3000 nM	–	0.683
[12], 4.1 nM	–	0.968
[12], 12.3 nM	–	0.827
[12], 37 nM	–	0.787
[12], 111.1 nM	–	0.842
[12], 333.3 nM	–	0.662
[12], 1000 nM	–	0.8
[12], 3000 nM	–	0.833
[13], 4.1 nM	–	0.843
[13], 12.3 nM	–	0.843
[13], 37 nM	–	0.774
[13], 111.1 nM	–	0.831
[13], 333.3 nM	–	0.809
[13], 1000 nM	–	0.759
[13], 3000 nM	–	0.746
[14], 4.1 nM	–	0.806
[14], 12.3 nM	–	0.83
[14], 37 nM	–	0.744
[14], 111.1 nM	–	0.679
[14], 333.3 nM	–	0.635
[14], 1000 nM	–	0.708
[14], 3000 nM	–	0.622

C=C[C@H]1CN2CC[C@H]1C[C@@H]2[C@@H](O)c1ccnc2ccc(OC)cc12 [Quinidine hydrochloride monohydrate]
Conditions	phenotypic distance	surviving fraction
[1], 4.1 nM	2.06	–
[1], 12.3 nM	2.74	–
[1], 37 nM	0.288	–
[1], 111.1 nM	0.43	–
[1], 333.3 nM	3.29	–
[1], 1000 nM	0.415	–
[1], 3000 nM	0.498	–
[2], 4.1 nM	1.42	–
[2], 12.3 nM	0.785	–
[2], 37 nM	0.783	–
[2], 111.1 nM	0.852	–
[2], 333.3 nM	0.814	–
[2], 1000 nM	0.565	–
[2], 3000 nM	1.06	–
[3], 4.1 nM	0.692	–
[3], 12.3 nM	0.479	–
[3], 37 nM	0.471	–
[3], 111.1 nM	0.837	–
[3], 333.3 nM	0.667	–
[3], 1000 nM	0.843	–
[3], 3000 nM	0.738	–
[4], 4.1 nM	1.52	–
[4], 12.3 nM	0.739	–
[4], 37 nM	0.504	–
[4], 111.1 nM	0.428	–
[4], 333.3 nM	0.941	–
[4], 1000 nM	0.478	–
[4], 3000 nM	0.676	–
[5], 4.1 nM	1.26	–
[5], 12.3 nM	0.809	–
[5], 37 nM	1.05	–
[5], 111.1 nM	0.841	–
[5], 333.3 nM	0.778	–
[5], 1000 nM	0.516	–
[5], 3000 nM	0.396	–
[6], 4.1 nM	1.14	–
[6], 12.3 nM	0.621	–
[6], 37 nM	0.809	–
[6], 111.1 nM	0.891	–
[6], 333.3 nM	0.965	–
[6], 1000 nM	0.266	–
[6], 3000 nM	0.69	–
[7], 4.1 nM	0.629	–
[7], 12.3 nM	0.932	–
[7], 37 nM	0.42	–
[7], 111.1 nM	5.48	–
[7], 333.3 nM	0.376	–
[7], 1000 nM	0.318	–
[7], 3000 nM	0.734	–
[8], 4.1 nM	–	0.965
[8], 12.3 nM	–	1.04
[8], 37 nM	–	1.06
[8], 111.1 nM	–	1.03
[8], 333.3 nM	–	0.954
[8], 1000 nM	–	1.09
[8], 3000 nM	–	1.01
[9], 4.1 nM	–	0.736
[9], 12.3 nM	–	1.03
[9], 37 nM	–	0.863
[9], 111.1 nM	–	1.03
[9], 333.3 nM	–	1
[9], 1000 nM	–	0.964
[9], 3000 nM	–	0.865
[10], 4.1 nM	–	1.12
[10], 12.3 nM	–	0.991
[10], 37 nM	–	1.14
[10], 111.1 nM	–	1.02
[10], 333.3 nM	–	1.15
[10], 1000 nM	–	1.07
[10], 3000 nM	–	1.2
[11], 4.1 nM	–	1.04
[11], 12.3 nM	–	0.915
[11], 37 nM	–	0.941
[11], 111.1 nM	–	0.942
[11], 333.3 nM	–	1.04
[11], 1000 nM	–	0.944
[11], 3000 nM	–	1.09
[12], 4.1 nM	–	1.06
[12], 12.3 nM	–	0.922
[12], 37 nM	–	0.904
[12], 111.1 nM	–	0.914
[12], 333.3 nM	–	1.02
[12], 1000 nM	–	0.91
[12], 3000 nM	–	0.984
[13], 4.1 nM	–	0.974
[13], 12.3 nM	–	0.955
[13], 37 nM	–	1.03
[13], 111.1 nM	–	1.14
[13], 333.3 nM	–	1.03
[13], 1000 nM	–	0.998
[13], 3000 nM	–	0.957
[14], 4.1 nM	–	1.05
[14], 12.3 nM	–	1.09
[14], 37 nM	–	1.04
[14], 111.1 nM	–	1.07
[14], 333.3 nM	–	1.05
[14], 1000 nM	–	1.09
[14], 3000 nM	–	1.12

Cc1nc2ccccn2c(=O)c1CCN1CCC(C(=O)c2ccc(F)cc2)CC1 [Pirenperone]
Conditions	phenotypic distance	surviving fraction
[1], 4.1 nM	0.486	–
[1], 12.3 nM	0.42	–
[1], 37 nM	0.709	–
[1], 111.1 nM	0.86	–
[1], 333.3 nM	0.944	–
[1], 1000 nM	0.709	–
[1], 3000 nM	2.42	–
[2], 4.1 nM	1	–
[2], 12.3 nM	0.656	–
[2], 37 nM	0.874	–
[2], 111.1 nM	0.825	–
[2], 333.3 nM	0.769	–
[2], 1000 nM	0.729	–
[2], 3000 nM	0.884	–
[3], 4.1 nM	0.892	–
[3], 12.3 nM	0.572	–
[3], 37 nM	0.636	–
[3], 111.1 nM	0.966	–
[3], 333.3 nM	0.52	–
[3], 1000 nM	0.489	–
[3], 3000 nM	0.806	–
[4], 4.1 nM	0.618	–
[4], 12.3 nM	0.402	–
[4], 37 nM	0.608	–
[4], 111.1 nM	0.551	–
[4], 333.3 nM	0.266	–
[4], 1000 nM	0.44	–
[4], 3000 nM	0.761	–
[5], 4.1 nM	0.796	–
[5], 12.3 nM	0.78	–
[5], 37 nM	0.668	–
[5], 111.1 nM	0.579	–
[5], 333.3 nM	0.636	–
[5], 1000 nM	0.719	–
[5], 3000 nM	0.659	–
[6], 4.1 nM	0.618	–
[6], 12.3 nM	0.837	–
[6], 37 nM	0.619	–
[6], 111.1 nM	0.898	–
[6], 333.3 nM	0.764	–
[6], 1000 nM	0.995	–
[6], 3000 nM	1.03	–
[7], 4.1 nM	0.572	–
[7], 12.3 nM	0.766	–
[7], 37 nM	2.84	–
[7], 111.1 nM	0.668	–
[7], 333.3 nM	0.553	–
[7], 1000 nM	0.431	–
[7], 3000 nM	1.17	–
[8], 4.1 nM	–	0.987
[8], 12.3 nM	–	1.07
[8], 37 nM	–	1.13
[8], 111.1 nM	–	1.14
[8], 333.3 nM	–	1.06
[8], 1000 nM	–	1.02
[8], 3000 nM	–	1.02
[9], 4.1 nM	–	1.08
[9], 12.3 nM	–	0.974
[9], 37 nM	–	1.12
[9], 111.1 nM	–	1.01
[9], 333.3 nM	–	1.11
[9], 1000 nM	–	1.12
[9], 3000 nM	–	0.984
[10], 4.1 nM	–	1.05
[10], 12.3 nM	–	0.977
[10], 37 nM	–	1.16
[10], 111.1 nM	–	0.995
[10], 333.3 nM	–	1.08
[10], 1000 nM	–	1.07
[10], 3000 nM	–	0.988
[11], 4.1 nM	–	1.02
[11], 12.3 nM	–	0.878
[11], 37 nM	–	0.945
[11], 111.1 nM	–	0.874
[11], 333.3 nM	–	0.886
[11], 1000 nM	–	0.857
[11], 3000 nM	–	0.912
[12], 4.1 nM	–	1.22
[12], 12.3 nM	–	1.22
[12], 37 nM	–	1.06
[12], 111.1 nM	–	0.912
[12], 333.3 nM	–	0.91
[12], 1000 nM	–	1.01
[12], 3000 nM	–	1.15
[13], 4.1 nM	–	0.92
[13], 12.3 nM	–	0.976
[13], 37 nM	–	1.17
[13], 111.1 nM	–	1.11
[13], 333.3 nM	–	1.12
[13], 1000 nM	–	1.05
[13], 3000 nM	–	1.19
[14], 4.1 nM	–	1.07
[14], 12.3 nM	–	1.08
[14], 37 nM	–	1.08
[14], 111.1 nM	–	1.02
[14], 333.3 nM	–	1.03
[14], 1000 nM	–	1.03
[14], 3000 nM	–	0.881
